Source: ChEMBL document CHEMBL1201862, “PubChem BioAssay data set” (2004)
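1) Cells in 96-well plates. 2) Compound, 48 h, 5 concentrations. 3) Linear interpolation between surrounding doses. 4) Unreached endpoint = highest concentration. GI50 is the concentration that inhibits growth by half.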 The source made the active and inactive calls. Rule as the data show it: active = GI50 up to about 1.1 µM and inactive = higher.

What was measured:
Experiment in all cases: inhibition of tumour cell growth, NCI panel, 48 h
DU-145 = system: DU-145
HOP-18 = system: HOP-18
KM-20L2 = system: KM-20L2
EKVX = system: EKVX
RXF 631 = system: RXF 631
MCF7 = system: MCF7
MDA-MB-231 = system: MDA-MB-231
MDA-N = system: MDA-N
NCI/ADR-RES = system: NCI/ADR-RES

Structure (SMILES)	GI50 (DU-145)	GI50 (HOP-18)	GI50 (KM-20L2)	GI50 (EKVX)	GI50 (RXF 631)	GI50 (MCF7)	GI50 (MDA-MB-231)	GI50 (MDA-N)	GI50 (NCI/ADR-RES)
C=C=C(Sc1ccccc1)C(C)(C)OC(C)=O	27.2 µM (inactive)	20 µM (inactive)	26.3 µM (inactive)	–	–	–	–	–	–
N#CC(C#N)=C1CCC2C(=C(C#N)C#N)CCC12 (stereo unspecified)	–	–	> 100 µM (inactive)	> 100 µM (inactive)	> 100 µM (inactive)	–	–	–	–
O=C(CCc1ccc(O)cc1)NCCc1cccc(O)c1	> 50 µM (inactive)	–	–	> 50 µM (inactive)	–	> 50 µM (inactive)	> 50 µM (inactive)	> 50 µM (inactive)	> 50 µM (inactive)
COc1ccc(Nc2cnc3cc(N)ccc3n2)cc1OC	–	–	63.1 µM (inactive)	> 100 µM (inactive)	–	–	–	–	–
CC(=O)c1ccc(NC(=O)/C(CC(=O)/C=C/c2ccccc2)=N/NC(N)=S)cc1	–	–	–	47.2 µM (inactive)	–	34.4 µM (inactive)	> 100 µM (inactive)	> 100 µM (inactive)	50 µM (inactive)
CSc1nc2c(nc(N)n2C2OCC(O)C(O)C2O)c(=O)[nH]1 (stereo unspecified)	–	> 100 µM (inactive)	> 100 µM (inactive)	> 100 µM (inactive)	> 100 µM (inactive)	–	–	–	–
CC(C)=CCC/C(C)=C/CC/C(C)=C/C(O)c1ccccc1 (stereo unspecified)	–	–	21.3 µM (inactive)	20.1 µM (inactive)	18 µM (inactive)	–	–	–	–
CC1SC2=NC3=C(c4ccccc4C3=O)C(c3ccccc3Cl)N2C1=O (stereo unspecified)	–	–	> 100 µM (inactive)	> 100 µM (inactive)	> 100 µM (inactive)	–	–	–	–
COc1ccc(-c2cc(N3CCN(c4ccccc4)CC3)c(C#N)c(=O)o2)cc1	–	4.88 µM (inactive)	> 100 µM (inactive)	23.8 µM (inactive)	21.5 µM (inactive)	–	–	–	–
O=C(O)C1CC2C=CCC(C2)C1 (stereo unspecified)	–	> 100 µM (inactive)	> 100 µM (inactive)	> 100 µM (inactive)	–	–	–	–	–
O=C(O)C(CSC(c1ccccc1)(c1ccccc1)c1ccccc1)/N=C/c1cccs1 (stereo unspecified)	3.85 µM (inactive)	–	–	5.42 µM (inactive)	–	0.853 µM (active)	1.57 µM (inactive)	0.357 µM (active)	14 µM (inactive)
CC(C)OP(=O)(OC(C)C)/C(F)=N/Nc1ccc([N+](=O)[O-])cc1	–	–	> 100 µM (inactive)	> 100 µM (inactive)	–	–	–	–	–
Cc1c2ccncc2c(C)c2c1[nH]c1ccc(OCCN(C)C)cc12	–	0.598 µM (active)	0.113 µM (active)	0.526 µM (active)	–	0.164 µM (active)	–	–	0.0916 µM (active)
CC[n+]1c(-c2ccccc2)c2cc(N)ccc2c2ccc(N)cc21 [HOMIDIUM BROMIDE]	7.57 µM (inactive)	–	–	–	–	2 µM (inactive)	8.55 µM (inactive)	4.2 µM (inactive)	> 100 µM (inactive)
CCc1ccc2nc(-c3ccc(O)cc3)sc2c1	15 µM (inactive)	–	–	–	–	20.2 µM (inactive)	13.2 µM (inactive)	18.5 µM (inactive)	13.5 µM (inactive)
CN(N=O)c1nc2c(C(N)=O)ncn2s1	20 µM (inactive)	–	–	> 100 µM (inactive)	–	86.7 µM (inactive)	36.3 µM (inactive)	> 100 µM (inactive)	39.7 µM (inactive)
O=C(O)C(SC(=S)c1ccc(C(=S)SC(C(=O)O)c2ccccc2)cc1)c1ccccc1 (stereo unspecified)	–	–	–	–	> 100 µM (inactive)	–	–	–	–
COc1ccc(C[C@H]2COC(=O)[C@@H]2Cc2cccc(Br)c2)cc1OC	33.3 µM (inactive)	–	–	29.4 µM (inactive)	–	16.2 µM (inactive)	19.1 µM (inactive)	20.7 µM (inactive)	24.2 µM (inactive)
Cc1cc(C)c2c(O)cc(-c3cccc4ccccc34)nc2n1	2.71 µM (inactive)	–	–	0.975 µM (active)	–	0.719 µM (active)	2.22 µM (inactive)	0.218 µM (active)	0.52 µM (active)
C1CCCCc2nc3c(nc2CCC1)c1nc2c(nc1c1nc4c(nc31)CCCCCCCC4)CCCCCCCC2	–	> 100 µM (inactive)	> 100 µM (inactive)	–	> 100 µM (inactive)	–	–	–	–
c1ccc(COc2cccc3ccc[n+](Cc4ccccc4)c23)cc1	–	2.07 µM (inactive)	4.12 µM (inactive)	6.43 µM (inactive)	18.9 µM (inactive)	–	–	–	–
O=C(C1=C(C(=O)c2ccccc2)SC2(S1)C(C(=O)c1ccccc1)=C(C(=O)c1ccccc1)Sc1c2ssc1=O)c1ccccc1	72.8 µM (inactive)	–	–	> 100 µM (inactive)	–	> 100 µM (inactive)	78.9 µM (inactive)	41.1 µM (inactive)	> 100 µM (inactive)
Nc1ccc(S(=O)(=O)c2ccc(NCN3C(=O)NC(=O)C(=O)C3=O)cc2)cc1 [ALLANTODAPSONE]	–	–	–	> 100 µM (inactive)	–	–	> 100 µM (inactive)	> 100 µM (inactive)	> 100 µM (inactive)
O=C(O)/C(O)=C1/C=C(c2ccccc2)c2ccccc21	–	22 µM (inactive)	33.7 µM (inactive)	–	28.6 µM (inactive)	–	–	–	–
CCOC(=O)c1c(Cl)nc2ccccc2c1N=[N+]=[N-]	–	–	–	22.4 µM (inactive)	–	–	16.2 µM (inactive)	21 µM (inactive)	–
COC1(O)c2cccc(Cl)c2C(=O)N1C1(C(N)=O)CCCCC1 (stereo unspecified)	–	> 100 µM (inactive)	> 100 µM (inactive)	> 100 µM (inactive)	–	> 100 µM (inactive)	–	–	> 100 µM (inactive)
COc1cc(C(=O)CC2OC(=O)C(Cl)=C2Cl)ccc1Cl (stereo unspecified)	–	> 100 µM (inactive)	> 100 µM (inactive)	> 100 µM (inactive)	> 100 µM (inactive)	–	–	–	–
O=C(Nc1nccs1)c1c(O)nc2sccn2c1=O	> 10 µM (inactive)	–	–	> 10 µM (inactive)	–	> 10 µM (inactive)	> 10 µM (inactive)	> 10 µM (inactive)	> 10 µM (inactive)
O=C1CC(=O)NC(NN2C(=O)/C(=C/c3ccc(Cl)c(Cl)c3)N=C2c2ccccc2)=N1	48.2 µM (inactive)	–	–	–	–	16.7 µM (inactive)	17.1 µM (inactive)	23.9 µM (inactive)	19.8 µM (inactive)
